Assay results: ChEMBL document CHEMBL1201862, “PubChem BioAssay data set” (2004)
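Growth conditions: 96-well plates. Treatment: test compound, 48 hours, 5 concentrations. Analysis: linear interpolation between bracketing concentrations; unreached endpoints set to highest concentration. At the GI50, growth is halved.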 Activity calls are given as the source filed them. Cut-off read from the data, not from the text of the source: active = GI50 up to about 1.1 µM and inactive = higher.

Tests used:
Assay in all cases: growth of human tumour cells (NCI), 48 h
A549 = tested on: A549
MDA-MB-231 = tested on: MDA-MB-231
SF-539 = tested on: SF-539
MOLT-4 = tested on: MOLT-4
UO-31 = tested on: UO-31
SNB-19 = tested on: SNB-19
Malme-3M = tested on: Malme-3M
OVCAR-4 = tested on: OVCAR-4
NCI-H522 = tested on: NCI-H522
NCI-H460 = tested on: NCI-H460
M14 = tested on: M14
SF-268 = tested on: SF-268
OVCAR-8 = tested on: OVCAR-8
NCI-H23 = tested on: NCI-H23
EKVX = tested on: EKVX
Hs-578T = tested on: Hs-578T
HCC 2998 = tested on: HCC 2998
KM12 = tested on: KM12
HL-60 = tested on: HL-60
NCI-H226 = tested on: NCI-H226
CCRF-CEM = tested on: CCRF-CEM
A498 = tested on: A498
K562 = tested on: K562
PC-3 = tested on: PC-3
SK-MEL-28 = tested on: SK-MEL-28
NCI/ADR-RES = tested on: NCI/ADR-RES
SNB-75 = tested on: SNB-75
HT-29 = tested on: HT-29
ACHN = tested on: ACHN
HOP-92 = tested on: HOP-92
HCT-116 = tested on: HCT-116
786-0 = tested on: 786-0
UACC-62 = tested on: UACC-62
HCT-15 = tested on: HCT-15
MCF7 = tested on: MCF7
SF-295 = tested on: SF-295
UACC-257 = tested on: UACC-257
U-251 = tested on: U-251
LOX IMVI = tested on: LOX IMVI
MDA-MB-435 = tested on: MDA-MB-435
TK-10 = tested on: TK-10
CAKI-1 = tested on: CAKI-1
MDA-N = tested on: MDA-N
RPMI-8226 = tested on: RPMI-8226
RXF 393 = tested on: RXF 393
SK-MEL-5 = tested on: SK-MEL-5
COLO 205 = tested on: COLO 205
SK-OV-3 = tested on: SK-OV-3
OVCAR-3 = tested on: OVCAR-3
SK-MEL-2 = tested on: SK-MEL-2
SN12C = tested on: SN12C
SW-620 = tested on: SW-620
HOP-62 = tested on: HOP-62
DU-145 = tested on: DU-145
T47D = tested on: T47D
IGROV-1 = tested on: IGROV-1
SR = tested on: SR
OVCAR-5 = tested on: OVCAR-5
BT-549 = tested on: BT-549

Measured: GI50

OC(Cc1cnnc2ccccc12)C(Cl)(Cl)Cl (configuration not stated)
> 10 µM: HCT-15
inactive: A549 > 10 µM | MDA-MB-231 > 10 µM | SF-539 > 10 µM | MOLT-4 > 10 µM | UO-31 > 10 µM | SNB-19 > 10 µM | Malme-3M > 10 µM | OVCAR-4 > 10 µM | NCI-H522 > 10 µM | NCI-H460 > 10 µM | M14 > 10 µM | SF-268 > 10 µM | OVCAR-8 > 10 µM | NCI-H23 > 10 µM | EKVX > 10 µM | Hs-578T > 10 µM | HCC 2998 > 10 µM | KM12 > 10 µM | HL-60 > 10 µM | NCI-H226 > 10 µM | CCRF-CEM > 10 µM | A498 > 10 µM | K562 > 10 µM | PC-3 > 10 µM | SK-MEL-28 > 10 µM | NCI/ADR-RES > 10 µM | SNB-75 > 10 µM | HT-29 > 10 µM | ACHN > 10 µM | HOP-92 > 10 µM | HCT-116 > 10 µM | 786-0 > 10 µM | UACC-62 > 10 µM | MCF7 > 10 µM | SF-295 > 10 µM | UACC-257 > 10 µM | U-251 > 10 µM | LOX IMVI > 10 µM | MDA-MB-435 > 10 µM | TK-10 > 10 µM | CAKI-1 > 10 µM | MDA-N > 10 µM | RPMI-8226 > 10 µM | RXF 393 > 10 µM | SK-MEL-5 > 10 µM | COLO 205 > 10 µM | SK-OV-3 > 10 µM | OVCAR-3 > 10 µM | SK-MEL-2 > 10 µM | SN12C > 10 µM | SW-620 > 10 µM | HOP-62 > 10 µM | DU-145 > 10 µM | T47D > 10 µM | IGROV-1 > 10 µM | SR > 10 µM

Cc1ccc(S(=O)(=O)OI(O)CC(F)(F)F)cc1
inactive: A549 > 100 µM | MDA-MB-231 > 100 µM | SF-539 > 100 µM | OVCAR-5 > 100 µM | MOLT-4 > 100 µM | UO-31 > 100 µM | OVCAR-4 > 100 µM | NCI-H522 91.8 µM | NCI-H460 > 100 µM | M14 > 100 µM | SF-268 > 100 µM | OVCAR-8 > 100 µM | NCI-H23 > 100 µM | EKVX > 100 µM | BT-549 > 100 µM | HCC 2998 > 100 µM | KM12 > 100 µM | HL-60 > 100 µM | NCI-H226 > 100 µM | CCRF-CEM > 100 µM | A498 > 100 µM | K562 > 100 µM | PC-3 > 100 µM | SK-MEL-28 > 100 µM | NCI/ADR-RES > 100 µM | SNB-75 > 100 µM | HT-29 > 100 µM | ACHN > 100 µM | HOP-92 > 100 µM | HCT-116 > 100 µM | 786-0 > 100 µM | UACC-62 > 100 µM | MCF7 > 100 µM | SF-295 > 100 µM | UACC-257 > 100 µM | U-251 > 100 µM | LOX IMVI > 100 µM | MDA-MB-435 > 100 µM | TK-10 > 100 µM | CAKI-1 > 100 µM | RPMI-8226 > 100 µM | RXF 393 > 100 µM | SK-MEL-5 > 100 µM | COLO 205 > 100 µM | SK-OV-3 > 100 µM | OVCAR-3 > 100 µM | SK-MEL-2 > 100 µM | SN12C > 100 µM | SW-620 > 100 µM | HOP-62 > 100 µM | DU-145 > 100 µM | T47D > 100 µM | IGROV-1 > 100 µM | SR > 100 µM
> 100 µM: HCT-15
